According to PMC9249674, “A small-molecule Skp1 inhibitor elicits cell death by p53-dependent mechanism” (iScience, 2022):

Columns and labels:
[1] = tested on: mycobacterial; assay: Anti-mycobacterial evaluation; assay type: cell-based
[2] = tested on: Skp1-ΔF-box complex; assay: LC-MS/MS analysis of in vitro binding; conditions: overnight incubation
[3] = molecular target: T1, Skp1 interaction with NIPA (Homo sapiens, UniProt P63208); assay: Cell-based FRET assay in HEK293 cells; conditions: 4 hrs, increasing concentrations
T1 construct: host or cells: HEK293

[4] = tested on: H1299; assay: Cell viability assay (Cell-Titer GLO); assay type: cell-based; conditions: Homo sapiens, NCI-H1299; H1299^b; Lung cancer; p53 null or mutant cancer cell lines; 48 hrs; read-out: Anti-proliferative EC50
Description: (§1) For cell viability, cells were seeded in 384 opaque-walled plates with clear bottoms at 300–500 cells per well (optimum density for growth) in a total volume of 20 μL of media. The media was according to culture conditions of each individual cell line (mentioned above). After 12 hrs, compounds were added in a total volume of 5 μL of media (two-fold diluted) to each well with final concentrations from 5 nM to 30 μM. The measurements were conducted 48 hrs after seeding of the cells. Then, 25 μL of Cell-Titer GLO reagent (Promega) was added, and luminescence was measured on an EnSpire multimode plate reader (PerkinElmer), according to the manufacturer’s instructions. The estimated in vitro half-maximal inhibitory concentration (EC50) values were calculated using GraphPad Prism® v6.0 (San Diego, CA) software. The cell viability for A549 cells was also performed for 72- and 96-hrs by using the same experimental conditions as described above.

[5] = tested on: K562; assay: Cell viability assay (Cell-Titer GLO); assay type: cell-based; conditions: Homo sapiens, Leukemia, 48 hrs, read-out: Anti-proliferative EC50
Description: as §1

[6] = tested on: A431; assay: Cell viability assay (Cell-Titer GLO); assay type: cell-based; conditions: Homo sapiens, A-431; A431^c; Skin carcinoma; p53 null or mutant cancer cell lines; 48 hrs; read-out: Anti-proliferative EC50
Description: as §1

[7] = tested on: MDA-MB-231; assay: Cell viability assay (Cell-Titer GLO); assay type: cell-based; conditions: Homo sapiens, Breast cancer, 48 hrs, read-out: Anti-proliferative EC50
Description: as §1

[8] = tested on: 22RV1; assay: Cell viability assay (Cell-Titer GLO); assay type: cell-based; conditions: Homo sapiens, Prostate cancer, 48 hrs, read-out: Anti-proliferative EC50
Description: as §1

[9] = tested on: HCT116; assay: Cell viability assay (Cell-Titer GLO); assay type: cell-based; conditions: Homo sapiens, HCT-116, Colon carcinoma, 48 hrs, read-out: Anti-proliferative EC50
Description: as §1

[10] = tested on: βTC6; assay: Cell viability assay (Cell-Titer GLO); assay type: cell-based; conditions: βTC6^a; Pancreatic insulinoma; 48 hrs; read-out: Anti-proliferative EC50
Description: as §1

[11] = tested on: H358; assay: Cell viability assay (Cell-Titer GLO); assay type: cell-based; conditions: Homo sapiens, NCI-H358; H358^b; Lung cancer; p53 null or mutant cancer cell lines; 48 hrs; read-out: Anti-proliferative EC50
Description: as §1

[12] = tested on: MGC-803; assay: Cell viability assay (Cell-Titer GLO); assay type: cell-based; conditions: Homo sapiens; MGC-803^c; Gastric cancer; p53 null or mutant cancer cell lines; 48 hrs; read-out: Anti-proliferative EC50
Description: as §1

[13] = tested on: Huh-7; assay: Cell viability assay (Cell-Titer GLO); assay type: cell-based; conditions: Homo sapiens, Liver cancer, 48 hrs, read-out: Anti-proliferative EC50
Description: as §1

[14] = tested on: Hela; assay: Cell viability assay (Cell-Titer GLO); assay type: cell-based; conditions: Homo sapiens, Cervical cancer, 48 hrs, read-out: Anti-proliferative EC50
Description: as §1

[15] = tested on: HepG2; assay: Cell viability assay (Cell-Titer GLO); assay type: cell-based; conditions: Homo sapiens, Liver cancer, 48 hrs, read-out: Anti-proliferative EC50
Description: as §1

[16] = tested on: LLC; assay: Cell viability assay (Cell-Titer GLO); assay type: cell-based; conditions: Lewis lung carcinoma; LLC^a; Lung cancer; 48 hrs; read-out: Anti-proliferative EC50
Description: as §1

[17] = tested on: NCI-N87; assay: Cell viability assay (Cell-Titer GLO); assay type: cell-based; conditions: Homo sapiens; NCI-N87^c; Gastric cancer; p53 null or mutant cancer cell lines; 48 hrs; read-out: Anti-proliferative EC50
Description: as §1

[18] = tested on: MCF-7; assay: Cell viability assay (Cell-Titer GLO); assay type: cell-based; conditions: Homo sapiens, MCF7, Breast cancer, 48 hrs, read-out: Anti-proliferative EC50
Description: as §1

[19] = tested on: LNCaP; assay: Cell viability assay (Cell-Titer GLO); assay type: cell-based; conditions: Homo sapiens, Prostate cancer, 48 hrs, read-out: Anti-proliferative EC50
Description: as §1

[20] = tested on: U2OS; assay: Cell viability assay (Cell-Titer GLO); assay type: cell-based; conditions: Homo sapiens, Osteosarcoma, 48 hrs, read-out: Anti-proliferative EC50
Description: as §1

[21] = tested on: 95D; assay: Cell viability assay (Cell-Titer GLO); assay type: cell-based; conditions: Lung cancer, 48 hrs, read-out: Anti-proliferative EC50
Description: as §1

[22] = tested on: C4-2B; assay: Cell viability assay (Cell-Titer GLO); assay type: cell-based; conditions: Prostate cancer, 48 hrs, read-out: Anti-proliferative EC50
Description: as §1

[23] = tested on: Du145; assay: Cell viability assay (Cell-Titer GLO); assay type: cell-based; conditions: Homo sapiens, DU-145, Prostate cancer, 48 hrs, read-out: Anti-proliferative EC50
Description: as §1

[24] = tested on: MKN-7; assay: Cell viability assay (Cell-Titer GLO); assay type: cell-based; conditions: Homo sapiens; MKN-7^c; Gastric cancer; p53 null or mutant cancer cell lines; 48 hrs; read-out: Anti-proliferative EC50
Description: as §1

[25] = tested on: H1650; assay: Cell viability assay (Cell-Titer GLO); assay type: cell-based; conditions: Homo sapiens, NCI-H1650, Lung cancer, 48 hrs, read-out: Anti-proliferative EC50
Description: as §1

[26] = tested on: Hs578T; assay: Cell viability assay (Cell-Titer GLO); assay type: cell-based; conditions: Homo sapiens, Hs-578T, Breast cancer, 48 hrs, read-out: Anti-proliferative EC50
Description: as §1

[27] = tested on: H460; assay: Cell viability assay (Cell-Titer GLO); assay type: cell-based; conditions: Homo sapiens, NCI-H460, Lung cancer, 48 hrs, read-out: Anti-proliferative EC50
Description: as §1

[28] = molecular target: T2, Skp1^F139A (Homo sapiens, UniProt P63208, F139A); assay: LC-MS/MS analysis of in vitro binding; conditions: Skp1^F139A mutant, overnight incubation
T2 construct: His6; made in house; host or cells: Escherichia coli BL21 (DE3)
T2 sequence (P63208 whole entry F139A): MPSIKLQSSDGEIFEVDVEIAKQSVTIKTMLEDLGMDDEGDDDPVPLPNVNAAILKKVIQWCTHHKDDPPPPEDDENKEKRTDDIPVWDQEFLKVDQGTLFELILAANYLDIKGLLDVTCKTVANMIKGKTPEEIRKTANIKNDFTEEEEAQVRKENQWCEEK

T1 sequence (P63208 whole entry): as the sequence (P63208 whole entry F139A) above, with A139F counted along it

Nc1ccc(-c2nc3ccccc3c3[nH]c4ccccc4c23)cc1 [Z0933M]
MIC [1]: > 30 µM
binding by LC-MS/MS [2]: robust binding
inhibition of Skp1-NIPA interaction (FRET ratio) [3]: significant inhibition
EC50 [4]: 11500 ± 210 nM
EC50 [5]: 735 ± 30 nM
EC50 [6]: > 30000 nM
EC50 [7]: 2900 ± 630 nM
EC50 [8]: 1110 ± 100 nM
EC50 [9]: 2820 ± 330 nM
EC50 [10]: 370 ± 7 nM
EC50 [11]: 14900 ± 420 nM
EC50 [12]: > 30000 nM
EC50 [13]: 3600 ± 810 nM
EC50 [14]: 360 ± 60 nM
EC50 [15]: 4080 ± 950 nM
EC50 [16]: 1850 ± 350 nM
EC50 [17]: > 30000 nM
EC50 [18]: 1460 ± 10 nM
EC50 [19]: 880 ± 30 nM
EC50 [20]: 970 ± 90 nM
EC50 [21]: 3140 ± 260 nM
EC50 [22]: 1900 ± 70 nM
EC50 [23]: 250 ± 20 nM
EC50 [24]: > 30000 nM
EC50 [25]: 2350 ± 450 nM
EC50 [26]: 2490 ± 70 nM
EC50 [27]: 2690 ± 70 nM
binding by LC-MS/MS [28]: markedly reduced
